Test results taken from patent publication US8691753B2 (priority 2009, dated 2014).
Where two headings read alike, the source gives them in different places.

What was measured:
Assay type in all cases: biochemical
MMP-1h = MMP-1h (Homo sapiens (Human), UniProt P03956); assay: Inhibition constant (Ki) on MMP-1h
Source text: (§1) The inhibition constant Ki of these compounds has been determined according to the protocol described by Devel et al, 2006, J. Biol. Chem. (7).
(§2) In this table I and also in table II below, “h” corresponds to human. All of the compounds have therefore been evaluated on human MMPs.

MMP-2h = MMP-2h (Homo sapiens (Human), UniProt P08253); assay: Inhibition constant (Ki) on MMP-2h
In short: (§3)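 Protocol from prior literature applied; inhibition constants measured for human enzymes only.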

MMP-3h = MMP-3h (Homo sapiens (Human), UniProt P08254); assay: Inhibition constant (Ki) on MMP-3h
In short: as §3

MMP-7h = MMP-7h (Homo sapiens (Human), UniProt P09237); assay: Inhibition constant (Ki) on MMP-7h
Source text: as §1, §2

MMP-8h = MMP-8h (Homo sapiens (Human), UniProt P22894); assay: Inhibition constant (Ki) on MMP-8h
MMP-9h = MMP-9h (Homo sapiens (Human), UniProt P14780); assay: Inhibition constant (Ki) on MMP-9h
In short: as §3

MMP-10h = MMP-10h (Homo sapiens (Human), UniProt P09238); assay: Inhibition constant (Ki) on MMP-10h
MMP-12h = MMP-12h (Homo sapiens (Human), UniProt P39900); assay: Inhibition constant (Ki) on MMP-12h
MMP-13h = MMP-13h (Homo sapiens (Human), UniProt P45452); assay: Inhibition constant (Ki) on MMP-13h
In short: as §3

MMP-14h = MMP-14h (Homo sapiens (Human), UniProt P50281); assay: Inhibition constant (Ki) on MMP-14h
In short: as §3

human MMPs = assay: Inhibition of the panel of human MMPs (overall statements, selectivity); settings: summary of table I
[1] = read-out: Ki MMP-2h, human MMP-2
[2] = read-out: Ki MMP-3h, human MMP-3
[3] = read-out: Ki MMP-8h, human MMP-8
[4] = read-out: Ki MMP-9h, human MMP-9
[5] = read-out: Ki MMP-10h, human MMP-10
[6] = read-out: Ki MMP-12h, human MMP-12
[7] = read-out: Ki MMP-13h, human MMP-13
[8] = read-out: Ki MMP-14h, human MMP-14
[9] = read-out: Ki MMP-1h, human MMP-1
[10] = read-out: Ki MMP-7h, human MMP-7

Chain of MMP-2h (P08253 110-660): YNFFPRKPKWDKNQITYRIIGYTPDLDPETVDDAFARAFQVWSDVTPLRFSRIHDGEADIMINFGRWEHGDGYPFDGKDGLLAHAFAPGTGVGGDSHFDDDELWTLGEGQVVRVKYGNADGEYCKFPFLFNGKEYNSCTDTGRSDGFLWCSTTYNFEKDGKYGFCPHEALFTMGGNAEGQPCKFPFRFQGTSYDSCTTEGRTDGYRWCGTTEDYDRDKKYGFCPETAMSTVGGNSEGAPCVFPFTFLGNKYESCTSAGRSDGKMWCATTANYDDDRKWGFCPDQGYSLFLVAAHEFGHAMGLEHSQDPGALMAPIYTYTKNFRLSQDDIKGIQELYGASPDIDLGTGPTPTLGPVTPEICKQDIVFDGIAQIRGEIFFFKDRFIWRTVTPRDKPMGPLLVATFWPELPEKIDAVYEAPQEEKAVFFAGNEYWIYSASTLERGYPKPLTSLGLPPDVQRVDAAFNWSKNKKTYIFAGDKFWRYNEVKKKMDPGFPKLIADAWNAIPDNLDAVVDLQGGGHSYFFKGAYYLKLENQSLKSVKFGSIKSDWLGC
Chain of MMP-8h (P22894 101-467): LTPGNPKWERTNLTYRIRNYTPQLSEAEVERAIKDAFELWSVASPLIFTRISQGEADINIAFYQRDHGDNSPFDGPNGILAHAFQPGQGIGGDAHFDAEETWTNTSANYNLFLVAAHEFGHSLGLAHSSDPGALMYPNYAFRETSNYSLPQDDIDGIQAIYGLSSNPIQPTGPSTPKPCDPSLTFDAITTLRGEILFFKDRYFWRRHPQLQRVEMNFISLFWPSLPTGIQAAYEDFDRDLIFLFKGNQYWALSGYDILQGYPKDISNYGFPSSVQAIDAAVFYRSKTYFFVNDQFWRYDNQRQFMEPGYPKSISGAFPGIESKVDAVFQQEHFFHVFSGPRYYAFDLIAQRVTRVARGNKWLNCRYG
Chain of MMP-7h (P09237 95-267): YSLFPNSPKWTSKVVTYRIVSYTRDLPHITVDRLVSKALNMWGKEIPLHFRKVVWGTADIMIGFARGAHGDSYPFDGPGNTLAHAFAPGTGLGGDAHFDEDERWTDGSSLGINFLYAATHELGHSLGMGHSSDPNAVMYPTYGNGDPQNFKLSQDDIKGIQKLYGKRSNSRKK
Chain of MMP-1h (P03956 100-469): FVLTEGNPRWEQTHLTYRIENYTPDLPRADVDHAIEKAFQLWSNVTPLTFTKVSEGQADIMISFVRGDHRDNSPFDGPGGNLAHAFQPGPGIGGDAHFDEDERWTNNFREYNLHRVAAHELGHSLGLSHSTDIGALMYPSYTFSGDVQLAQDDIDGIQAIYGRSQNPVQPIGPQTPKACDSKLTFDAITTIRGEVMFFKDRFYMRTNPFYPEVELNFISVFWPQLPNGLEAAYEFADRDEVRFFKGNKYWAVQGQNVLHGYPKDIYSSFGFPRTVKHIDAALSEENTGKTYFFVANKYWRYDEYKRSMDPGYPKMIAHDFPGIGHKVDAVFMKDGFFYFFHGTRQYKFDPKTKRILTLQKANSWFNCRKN
Chain of MMP-10h (P09238 99-476): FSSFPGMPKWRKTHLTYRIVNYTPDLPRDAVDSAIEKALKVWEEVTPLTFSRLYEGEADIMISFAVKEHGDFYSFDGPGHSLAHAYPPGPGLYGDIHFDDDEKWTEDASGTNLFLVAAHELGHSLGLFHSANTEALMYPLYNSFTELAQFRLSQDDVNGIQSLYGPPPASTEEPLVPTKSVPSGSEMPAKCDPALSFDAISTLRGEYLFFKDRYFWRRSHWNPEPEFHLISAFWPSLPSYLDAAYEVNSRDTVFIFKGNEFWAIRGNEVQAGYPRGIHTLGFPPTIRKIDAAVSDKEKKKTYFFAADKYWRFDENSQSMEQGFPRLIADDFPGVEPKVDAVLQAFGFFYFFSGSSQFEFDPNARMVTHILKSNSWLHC
Chain of MMP-3h (P08254 100-477): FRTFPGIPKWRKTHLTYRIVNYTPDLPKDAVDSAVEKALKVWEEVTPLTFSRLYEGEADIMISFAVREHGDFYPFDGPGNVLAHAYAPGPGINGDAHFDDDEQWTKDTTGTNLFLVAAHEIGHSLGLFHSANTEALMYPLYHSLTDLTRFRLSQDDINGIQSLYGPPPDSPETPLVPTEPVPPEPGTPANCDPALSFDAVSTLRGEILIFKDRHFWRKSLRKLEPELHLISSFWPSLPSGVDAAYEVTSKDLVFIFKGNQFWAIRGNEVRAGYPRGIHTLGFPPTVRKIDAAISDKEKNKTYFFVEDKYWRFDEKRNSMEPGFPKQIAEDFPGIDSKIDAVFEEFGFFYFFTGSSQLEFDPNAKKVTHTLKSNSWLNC
Chain of MMP-9h (P14780 94-707): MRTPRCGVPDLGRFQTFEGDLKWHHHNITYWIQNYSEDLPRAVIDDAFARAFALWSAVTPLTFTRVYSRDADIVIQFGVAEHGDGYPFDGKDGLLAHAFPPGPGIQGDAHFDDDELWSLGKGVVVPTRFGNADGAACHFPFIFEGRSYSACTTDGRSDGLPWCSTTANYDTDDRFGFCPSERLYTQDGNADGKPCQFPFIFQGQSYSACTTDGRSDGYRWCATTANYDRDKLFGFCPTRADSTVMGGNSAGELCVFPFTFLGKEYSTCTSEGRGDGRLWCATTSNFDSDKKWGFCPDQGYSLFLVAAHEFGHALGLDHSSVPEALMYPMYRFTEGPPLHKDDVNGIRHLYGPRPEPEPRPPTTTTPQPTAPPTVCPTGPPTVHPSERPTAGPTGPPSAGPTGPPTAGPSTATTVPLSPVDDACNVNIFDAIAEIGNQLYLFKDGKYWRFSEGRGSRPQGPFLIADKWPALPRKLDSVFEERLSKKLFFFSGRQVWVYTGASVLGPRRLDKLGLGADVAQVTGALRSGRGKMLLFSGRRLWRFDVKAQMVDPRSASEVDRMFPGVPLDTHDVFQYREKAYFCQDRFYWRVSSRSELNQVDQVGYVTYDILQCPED
Chain of MMP-12h (P39900 106-470): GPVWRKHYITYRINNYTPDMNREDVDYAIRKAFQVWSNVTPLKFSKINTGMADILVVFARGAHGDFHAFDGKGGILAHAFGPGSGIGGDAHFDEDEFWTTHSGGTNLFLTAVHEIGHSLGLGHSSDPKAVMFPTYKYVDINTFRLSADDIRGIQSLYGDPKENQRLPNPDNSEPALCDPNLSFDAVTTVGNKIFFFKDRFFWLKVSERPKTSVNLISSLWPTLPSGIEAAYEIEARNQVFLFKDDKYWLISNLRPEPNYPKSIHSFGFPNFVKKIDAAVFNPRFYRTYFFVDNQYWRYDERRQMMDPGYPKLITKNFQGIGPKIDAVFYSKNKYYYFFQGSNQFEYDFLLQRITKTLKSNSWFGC

Row | SMILES | Ki (MMP-2h; [1]) [nM] | Ki (MMP-3h; [2]) [nM] | Ki (MMP-8h; [3]) [nM] | Ki (MMP-9h; [4]) [nM] | Ki (MMP-10h; [5]) [nM] | Ki (MMP-12h; [6]) [nM] | Ki (MMP-13h; [7]) [nM] | Ki (MMP-14h; [8]) [nM] | Ki (MMP-1h; [9]) [nM] | Ki (MMP-7h; [10]) [nM] | also measured
1 | N=c1ccc2c(-c3cc(C(=O)NCCCOCCOCCOCCCNC(=O)[C@H](CCC(=O)O)NC(=O)[C@H](CCC(=O)O)NC(=O)CCc4ccc(-c5cc(-c6ccccc6)cs5)cc4)ccc3C(=O)O)c3ccc(N)c(S(=O)(=O)O)c3oc-2c1S(=O)(=O)O [Compound 108] |  |  |  |  |  |  |  |  |  |  | Ki (MMP-1h): > 10000 nM; Selectivity factor/MMP12, MMP-1h (MMP-1h; Ki MMP-1h/Ki MMP-12): 670; Ki (MMP-2h): > 2500 nM; Selectivity factor/MMP12, MMP-2h (MMP-2h; Ki MMP-2h/Ki MMP-12): 170; Ki (MMP-3h): > 10000 nM; Selectivity factor/MMP12, MMP-3h (MMP-3h; Ki MMP-3h/Ki MMP-12): 670; Ki (MMP-7h): > 10000 nM; Selectivity factor/MMP12, MMP-7h (MMP-7h; Ki MMP-7h/Ki MMP-12): 670; Ki (MMP-8h): > 2500 nM; Selectivity factor/MMP12, MMP-8h (MMP-8h; Ki MMP-8h/Ki MMP-12): 170; Ki (MMP-9h): > 5000 nM; Selectivity factor/MMP12, MMP-9h (MMP-9h; Ki MMP-9h/Ki MMP-12): 333; Ki (MMP-10h): 833 nM; Selectivity factor/MMP12, MMP-10h (MMP-10h; Ki MMP-10h/Ki MMP-12): 55; Ki (MMP-12h): 15 nM; Selectivity factor/MMP12, MMP-12h (MMP-12h; Ki MMP-12h/Ki MMP-12): 1; Ki (MMP-13h): > 1000 nM; Selectivity factor/MMP12, MMP-13h (MMP-13h; Ki MMP-13h/Ki MMP-12): 66; Ki (MMP-14h): > 10000 nM; Selectivity factor/MMP12, MMP-14h (MMP-14h; Ki MMP-14h/Ki MMP-12): 670
2 | NC(=O)[C@H](CCC(=O)O)NC(=O)[C@H](CCC(=O)O)NC(=O)CCc1cn(-c2ccccc2)nn1 [Compound 24, (S)-5-amino-4-((S)-4-carboxy-2-(3-(1-phenyl-1H-1,2,3-triazol-4-yl)propanamido)butanamido)-5-oxopentanoic acid] | > 5000 | > 1000 | > 1000 | > 1000 | > 1000 | > 1000 | > 5000 | > 5000 |  |  | inhibitory activity toward MMPs (in words) (human MMPs): do not have any inhibitory activity
3 | NC(=O)[C@H](CCC(=O)O)NC(=O)[C@H](CCC(=O)O)NC(=O)CCc1cc(-c2ccccc2)on1 [Compound 25, (S)-5-amino-4-((S)-4-carboxy-2-(3-(5-phenylisoxazol-3-yl)propanamido)butanamido)-5-oxopentanoic acid] | > 1000 | > 5000 | 332 | > 5000 | > 1000 | 160 | 550 | > 1000 |  |  | inhibitory activity toward MMPs (in words) (human MMPs): MMP inhibitors
4 | O=C(O)CC[C@H](NC(=O)CCc1ccc(-c2cc(-c3ccccc3)cs2)cc1)C(=O)Nc1cccc(CC(=O)O)c1 [Compound 106, (S)-5-(3-(carboxymethyl)phenylamino)-5-oxo-4-(3-(4-(4-phenylthiophen-2-yl)phenyl)propanamido)pentanoic acid] | 339 | 791 | 675 | 396 | 318 | 4.3 | 132 | > 1000 | > 1000 | > 1000 | 
5 | NC(=O)[C@H](CCC(=O)O)NC(=O)CCc1ccc(-c2cc(-c3ccccc3)cs2)cc1 [Compound 105, (S)-5-amino-5-oxo-4-(3-(4-(4-phenylthiophen-2-yl)phenyl)propanamido)pentanoic acid] | 377 | > 1000 |  | > 1000 | > 1000 | 3.65 | 603 | > 1000 | > 10000 | > 10000 | 
6 | NC(=O)[C@H](CCC(=O)O)NC(=O)[C@H](CCC(=O)O)NC(=O)CCc1ccc(-c2cccs2)cc1 [Compound 80, (S)-5-amino-4-((S)-4-carboxy-2-(3-(4-(thiophen-2-yl)phenyl)propanamido)butanamido)-5-oxopentanoic acid] | 142 | > 1000 | 40 | > 1000 | 373 | 8.6 | 321 | > 1000 | > 100000 | > 1000 | 
7 | NC(=O)[C@H](CCC(=O)O)NC(=O)[C@H](CCC(=O)O)NC(=O)CCc1cc(-c2ccccc2)no1 [Compound 14, (S)-5-amino-4-((S)-4-carboxy-2-(3-(3-phenylisoxazol-5-yl)propanamido)butanamido)-5-oxopentanoic acid] | 756 | > 10000 | 112 | > 1000 | > 1000 |  | > 1000 | > 1000 | > 10000 | > 10000 | 
8 | NC(=O)[C@H](CCC(=O)O)NC(=O)[C@H](CCC(=O)O)NC(=O)CCc1ccc(-c2ccc(-c3ccccc3)cc2)cc1 [Compound 61, (S)-5-amino-4-((S)-4-carboxy-2-(3-(4′-phenylbiphenyl-4-yl)propanamido)butanamido)-5-oxopentanoic acid] | 53 | 74 | 132 | > 1000 | 76 | 1.63 | 20 | > 1000 | > 5000 | 502 | 
9 | NCCCC[C@H](NC(=O)[C@H](CCC(=O)O)NC(=O)CCc1ccc(-c2ccc(-c3ccccc3)cc2)cc1)C(N)=O [Compound 63, (S)-5-((S)-1,6-diamino-1-oxohexan-2-ylamino)-4-(3-(4′-phenylbiphenyl-4-yl)propanamido)-5-oxopentanoic acid] | 110 | > 1000 | 621 | > 1000 | 447 | 14.3 | 55 | > 1000 |  |  | 
10 | NC(=O)[C@H](CCC(=O)O)NC(=O)[C@H](CCC(=O)O)NC(=O)CCc1ccc(-c2cccc(CO)c2)cc1 [Compound 60, (S)-5-amino-4-((S)-4-carboxy-2-(3-(3′-(hydroxymethyl)biphenyl-4-yl)propanamido)butanamido)-5-oxopentanoic acid] | > 5000 | > 10000 | 809 | > 5000 | > 5000 | 52 | > 5000 | > 10000 |  |  | 
11 | Cc1csc(-c2ccc(CCC(=O)N[C@@H](CCC(=O)O)C(=O)N[C@@H](CCC(=O)O)C(N)=O)cc2)c1 [Compound 94, (S)-5-amino-4-((S)-4-carboxy-2-(3-(4-(4-methylthiophen-2-yl)phenyl)propanamido)butanamido)-5-oxopentanoic acid] | 868 | > 1000 | 233 | > 1000 | > 1000 | 22 | > 1000 | > 10000 |  |  | 
12 | NC(=O)[C@H](CC(=O)O)NC(=O)[C@H](CCC(=O)O)NC(=O)CCc1cc(-c2ccc(-c3cccc(Cl)c3)cc2)no1 [Compound 8, (S)-5-((S)-1-amino-3-carboxy-1-oxopropan-2-ylamino)-4-(3-(3-(3′-chlorobiphenyl-4-yl)isoxazol-5-yl)propanamido)-5-oxopentanoic acid] | 112 | 243 | 556 | > 1000 | 35 | 11 | 30 | > 1000 |  |  | 
